Experimental findings from patent US20190330224A1, “ACC INHIBITORS AND USES THEREOF” (Gilead Apollo, LLC, priority 2015, published 2019) are described below.

Test [1] has as its target Human ACC2 (Homo sapiens, UniProt O00763). Briefly: In vitro ACC2 inhibition assay (ADP-Glo), human ACC2. It counts as biochemical. Conditions: 5 nM ACC2, 20 μM ATP, 20 μM acetyl-CoA.
In test [2] the test system is C. albicans ATCC 90028. Briefly: Anti-Fungal Activity Assay (broth microtiter MIC), C. albicans. Format: cell-based, Candida albicans. Conditions: Candida albicans, ATCC90028, 48 h, 3 replicates; MIC recorded at 48 h; read-out: MIC C. albicans ATCC 90028. How it is done:
(§1) Compounds of the present invention were evaluated in an Anti-Fungal Activity Assay. An exemplary procedure for the assay, which measures the susceptibility of various Candida species to anti-fungal compounds, follows. Compounds to be tested (including fluconazole and amphotericin B) were dissolved in DMSO to obtain a solution having a concentration of 1 mg/mL. […] All species were grown from frozen stock by directly plating on to freshly prepared Sabouraud Dextrose agar (BD, Difco) and incubated overnight in ambient air at 35° C. for 24 h. A direct suspension was prepared in RPMI 1640+MOPS (Lonza, Biowhittaker) by taking individual colonies from the overnight cultures using sterile swabs soaked in sterile saline. The concentration of the suspension was determined using pre-determined standard curves. […] Broth microtiter MIC challenge plates were prepared following CLSI guidelines (M27-A3, Vol. 28 No. 14). The original CLSI guidelines focused on reading Candida MICs after 48 h of incubation. As reading after only 24 h offers a clear advantage of patient care, QC limits are being established for all drugs at 24 h. That being said there are no known interpretive breakpoints for amphotericin B at 24 h and the current fluconazole interpretive breakpoints are based on a 48 h reading. The MIC breakpoints for the test compounds were recorded at 48 h, and for the soraphen the 24 h time-point was added. All MIC determinations were achieved by visually comparing the growth found in the antibiotic challenged wells to that of the growth control.

Test [3] has as its system C. krusei ATCC 6258. Briefly: Anti-Fungal Activity Assay (broth microtiter MIC), C. krusei. Format: cell-based, Candida krusei. Particulars: Pichia kudriavzevii, ATCC6258, 48 h, 3 replicates; MIC recorded at 48 h; read-out: MIC C. krusei ATCC 6258. The protocol: as §1
The test system of test [4] is C. parapsilosis ATCC 22019. Briefly: Anti-Fungal Activity Assay (broth microtiter MIC), C. parapsilosis. Format: cell-based, Candida parapsilosis. Particulars: Lodderomyces parapsilosis, ATCC22019, 48 h, 3 replicates; MIC recorded at 48 h; read-out: MIC C. parapsilosis ATCC 22019. The protocol: as §1

≈ marks a conversion by molar mass, not a printed value.

Sequence of Human ACC2 (O00763 whole entry): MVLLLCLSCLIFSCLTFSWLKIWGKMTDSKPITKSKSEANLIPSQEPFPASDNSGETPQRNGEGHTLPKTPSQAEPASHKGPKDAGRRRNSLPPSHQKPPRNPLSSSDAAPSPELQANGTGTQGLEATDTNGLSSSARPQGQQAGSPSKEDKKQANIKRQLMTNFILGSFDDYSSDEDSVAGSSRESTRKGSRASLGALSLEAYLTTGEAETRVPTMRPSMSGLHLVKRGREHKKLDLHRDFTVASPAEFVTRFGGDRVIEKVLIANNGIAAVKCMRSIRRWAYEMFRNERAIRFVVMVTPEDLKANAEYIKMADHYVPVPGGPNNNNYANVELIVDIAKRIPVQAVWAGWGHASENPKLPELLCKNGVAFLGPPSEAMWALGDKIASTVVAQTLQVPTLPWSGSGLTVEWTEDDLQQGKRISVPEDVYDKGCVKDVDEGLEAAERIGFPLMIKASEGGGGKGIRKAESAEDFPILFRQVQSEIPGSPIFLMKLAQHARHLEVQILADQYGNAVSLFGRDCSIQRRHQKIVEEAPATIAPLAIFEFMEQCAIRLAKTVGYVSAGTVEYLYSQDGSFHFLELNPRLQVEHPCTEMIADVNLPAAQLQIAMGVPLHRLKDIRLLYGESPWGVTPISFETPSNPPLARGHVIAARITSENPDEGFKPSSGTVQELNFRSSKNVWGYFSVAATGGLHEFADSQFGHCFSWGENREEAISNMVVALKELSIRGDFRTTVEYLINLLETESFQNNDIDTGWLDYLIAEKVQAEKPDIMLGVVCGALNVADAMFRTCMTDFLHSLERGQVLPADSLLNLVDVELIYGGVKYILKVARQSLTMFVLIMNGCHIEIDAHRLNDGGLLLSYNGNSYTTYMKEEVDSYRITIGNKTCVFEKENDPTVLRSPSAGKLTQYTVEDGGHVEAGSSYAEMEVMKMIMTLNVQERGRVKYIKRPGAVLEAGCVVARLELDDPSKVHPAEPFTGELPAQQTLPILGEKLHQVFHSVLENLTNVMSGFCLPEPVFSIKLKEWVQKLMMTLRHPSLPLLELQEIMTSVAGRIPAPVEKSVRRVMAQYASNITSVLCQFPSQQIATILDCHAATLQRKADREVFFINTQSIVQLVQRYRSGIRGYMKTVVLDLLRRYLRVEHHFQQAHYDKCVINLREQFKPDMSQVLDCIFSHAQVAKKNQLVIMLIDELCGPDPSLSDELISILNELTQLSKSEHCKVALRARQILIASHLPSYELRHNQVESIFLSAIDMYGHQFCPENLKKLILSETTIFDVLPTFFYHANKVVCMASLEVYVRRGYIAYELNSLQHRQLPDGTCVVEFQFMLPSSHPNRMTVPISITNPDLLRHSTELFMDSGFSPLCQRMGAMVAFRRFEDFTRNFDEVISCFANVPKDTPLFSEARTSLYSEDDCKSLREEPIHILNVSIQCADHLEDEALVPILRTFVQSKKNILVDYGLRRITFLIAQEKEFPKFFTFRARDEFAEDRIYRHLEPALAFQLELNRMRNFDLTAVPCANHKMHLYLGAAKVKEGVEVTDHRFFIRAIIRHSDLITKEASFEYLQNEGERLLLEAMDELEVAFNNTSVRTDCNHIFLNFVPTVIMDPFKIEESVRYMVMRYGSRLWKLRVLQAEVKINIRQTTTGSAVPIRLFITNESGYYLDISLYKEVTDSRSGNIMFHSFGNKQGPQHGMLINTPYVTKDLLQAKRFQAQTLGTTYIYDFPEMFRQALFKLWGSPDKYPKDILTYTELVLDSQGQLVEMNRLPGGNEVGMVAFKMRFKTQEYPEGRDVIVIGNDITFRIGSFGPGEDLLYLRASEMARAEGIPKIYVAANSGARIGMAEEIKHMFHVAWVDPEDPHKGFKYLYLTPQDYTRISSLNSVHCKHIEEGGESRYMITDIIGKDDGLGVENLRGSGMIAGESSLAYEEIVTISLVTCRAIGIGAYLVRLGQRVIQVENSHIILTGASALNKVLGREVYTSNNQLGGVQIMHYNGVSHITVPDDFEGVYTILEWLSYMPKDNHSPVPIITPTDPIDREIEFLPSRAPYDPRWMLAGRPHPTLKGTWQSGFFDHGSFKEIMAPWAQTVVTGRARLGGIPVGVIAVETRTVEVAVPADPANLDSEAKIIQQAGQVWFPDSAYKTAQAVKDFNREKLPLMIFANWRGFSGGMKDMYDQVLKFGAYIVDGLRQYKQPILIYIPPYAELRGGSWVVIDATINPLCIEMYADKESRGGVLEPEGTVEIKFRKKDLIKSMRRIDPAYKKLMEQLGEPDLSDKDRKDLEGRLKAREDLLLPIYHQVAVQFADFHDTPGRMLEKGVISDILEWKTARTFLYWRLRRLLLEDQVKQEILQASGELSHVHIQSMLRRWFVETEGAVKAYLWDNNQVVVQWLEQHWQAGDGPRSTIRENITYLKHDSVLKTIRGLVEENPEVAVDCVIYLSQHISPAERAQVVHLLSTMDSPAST

`COc1ccc(F)cc1[C@H](Cn1c(=O)n([C@H]2CCNC2=O)c(=O)c2c(C)c(-n3nccn3)sc21)OC1CCOCC1` [Compound I-33, 1-((R)-2-(5-fluoro-2-methoxyphenyl)-2-((tetrahydro-2H-pyran-4-yl)oxy)ethyl)-5-methyl-3-((S)-2-oxopyrrolidin-3-yl)-6-(2H-1,2,3-triazol-2-yl)thieno[2,3-d]pyrimidine-2,4(1H,3H)-dione] had a 50% inhibitory concentration (IC50) in test [1] of 2 to 10 nM. For the same compound, the MIC in test [2] was in the range of 2.1 to 4 µg/mL (≈ 3.59 to 6.84 µM); in test [3], 1.1 to 2 µg/mL (≈ 1.88 to 3.42 µM); in test [4], 2.1 to 4 µg/mL (≈ 3.59 to 6.84 µM).

Compound `COc1ccc(F)cc1[C@H](Cn1c(=O)n([C@@H]2CCCNC2=O)c(=O)c2c(C)c(-n3nccn3)sc21)OC1CCOCC1` [Compound I-38, 1-((R)-2-(5-fluoro-2-methoxyphenyl)-2-((tetrahydro-2H-pyran-4-yl)oxy)ethyl)-5-methyl-3-((R)-2-oxopiperidin-3-yl)-6-(2H-1,2,3-triazol-2-yl)thieno[2,3-d]pyrimidine-2,4(1H,3H)-dione] yielded a half-inhibitory concentration (IC50) in test [1] of 10 to 100 nM. For the same compound, the MIC in test [2], in test [3] and in test [4] was 2.1 to 4 µg/mL (≈ 3.51 to 6.68 µM) in each case.

`COc1ccccc1[C@H](Cn1c(=O)n(C2CCCNC2=O)c(=O)c2c(C)c(-c3ncco3)sc21)OC1CCOCC1` (stereo partly drawn) [Compound I-49, 1-((R)-2-(2-methoxyphenyl)-2-((tetrahydro-2H-pyran-4-yl)oxy)ethyl)-5-methyl-6-(oxazol-2-yl)-3-(2-oxopiperidin-3-yl)thieno[2,3-d]pyrimidine-2,4(1H,3H)-dione] returned an IC50 in test [1] of 10 to 100 nM. Also, the results for the MIC in test [2], in test [3] and in test [4] were 1.1 to 2 µg/mL (≈ 1.89 to 3.44 µM), 2.1 to 4 µg/mL (≈ 3.62 to 6.89 µM) and 2.1 to 4 µg/mL (≈ 3.62 to 6.89 µM), respectively.

Regarding `COc1ccccc1[C@H](Cn1c(=O)n(C2CCCN(C)C2=O)c(=O)c2c(C)c(-c3ncco3)sc21)OC1CCOCC1` (stereo partly drawn) [Compound I-50, 1-((R)-2-(2-methoxyphenyl)-2-((tetrahydro-2H-pyran-4-yl)oxy)ethyl)-5-methyl-3-(1-methyl-2-oxopiperidin-3-yl)-6-(oxazol-2-yl)thieno[2,3-d]pyrimidine-2,4(1H,3H)-dione], in test [1], the IC50 was 10 to 100 nM. Further, the MIC in test [2], in test [3] and in test [4] was 2.1 to 4 µg/mL (≈ 3.53 to 6.73 µM) each time.

As for `COc1ccc(F)cc1[C@H](Cn1c(=O)n(C2CCCNC2=O)c(=O)c2c(C)c(-c3ncco3)sc21)OC1CCOCC1` (stereo partly drawn) [Compound I-51, 1-((R)-2-(5-fluoro-2-methoxyphenyl)-2-((tetrahydro-2H-pyran-4-yl)oxy)ethyl)-5-methyl-6-(oxazol-2-yl)-3-(2-oxopiperidin-3-yl)thieno[2,3-d]pyrimidine-2,4(1H,3H)-dione], the IC50 in test [1] fell in the range of 10 to 100 nM. Further, the MIC in test [2] was in the range of 1.1 to 2 µg/mL (≈ 1.84 to 3.34 µM); in test [3], 2.1 to 4 µg/mL (≈ 3.51 to 6.68 µM); in test [4] it was 2.1 to 4 µg/mL (≈ 3.51 to 6.68 µM).

`COc1ccc(F)cc1[C@H](Cn1c(=O)n(C2CCCN(C)C2=O)c(=O)c2c(C)c(-c3ncco3)sc21)OC1CCOCC1` (stereo partly drawn) [Compound I-52, 1-((R)-2-(5-fluoro-2-methoxyphenyl)-2-((tetrahydro-2H-pyran-4-yl)oxy)ethyl)-5-methyl-3-(I-methyl-2-oxopiperidin-3-yl)-6-(oxazol-2-yl)thieno[2,3-d]pyrimidine-2,4(1H,3H)-dione]: in test [1], the IC50 is 10 to 100 nM. In addition, the minimal inhibitory concentration (MIC) in test [2] was 2.1 to 4 µg/mL (≈ 3.43 to 6.53 µM); in test [3], 1.1 to 2 µg/mL (≈ 1.8 to 3.26 µM); in test [4], 2.1 to 4 µg/mL (≈ 3.43 to 6.53 µM).

For `COc1ccccc1[C@H](Cn1c(=O)n(C2CCNC2=O)c(=O)c2c(C)c(-c3ncco3)sc21)OC1CCOCC1` (stereo partly drawn) [Compound I-56, 1-((R)-2-(2-methoxyphenyl)-2-((tetrahydro-2H-pyran-4-yl)oxy)ethyl)-5-methyl-6-(oxazol-2-yl)-3-(2-oxopyrrolidin-3-yl)thieno[2,3-d]pyrimidine-2,4(1H,3H)-dione], the IC50 in test [1] is 2 to 10 nM. Moreover, the MIC in test [2], in test [3] and in test [4] was 2.1 to 4 µg/mL (≈ 3.71 to 7.06 µM) in each case.

In test [1], `COc1ccccc1[C@H](Cn1c(=O)n(C2CCN(C)C2=O)c(=O)c2c(C)c(-c3ncco3)sc21)OC1CCOCC1` (stereo partly drawn) [Compound I-57, 1-((R)-2-(2-methoxyphenyl)-2-((tetrahydro-2H-pyran-4-yl)oxy)ethyl)-5-methyl-3-(1-methyl-2-oxopyrrolidin-3-yl)-6-(oxazol-2-yl)thieno[2,3-d]pyrimidine-2,4(1H,3H)-dione] gave an IC50 of 10 to 100 nM. In addition, the figures for the MIC in test [2], in test [3] and in test [4] were 1.1 to 2 µg/mL (≈ 1.89 to 3.44 µM), 1.1 to 2 µg/mL (≈ 1.89 to 3.44 µM) and 2.1 to 4 µg/mL (≈ 3.62 to 6.89 µM), respectively.

`COc1ccc(F)cc1[C@H](Cn1c(=O)n(C2CCNC2=O)c(=O)c2c(C)c(-c3ncco3)sc21)OC1CCOCC1` (stereo partly drawn) [Compound I-58, 1-((R)-2-(5-fluoro-2-methoxyphenyl)-2-((tetrahydro-2H-pyran-4-yl)oxy)ethyl)-5-methyl-6-(oxazol-2-yl)-3-(2-oxopyrrolidin-3-yl)thieno[2,3-d]pyrimidine-2,4(1H,3H)-dione] returned an IC50 in test [1] of 2 to 10 nM. Moreover, the minimum inhibitory concentration (MIC) in test [2], in test [3] and in test [4] was 2.1 to 4 µg/mL (≈ 3.59 to 6.84 µM) throughout.

For the compound `COc1ccc(F)cc1[C@H](Cn1c(=O)n(C2CCN(C)C2=O)c(=O)c2c(C)c(-c3ncco3)sc21)OC1CCOCC1` (stereo partly drawn) [Compound I-59, 1-((R)-2-(5-fluoro-2-methoxyphenyl)-2-((tetrahydro-2H-pyran-4-yl)oxy)ethyl)-5-methyl-3-(1-methyl-2-oxopyrrolidin-3-yl)-6-(oxazol-2-yl)thieno[2,3-d]pyrimidine-2,4(1H,3H)-dione], in test [1], the IC50 lay in the range of 2 to 10 nM. Further, the minimal inhibitory concentration (MIC) in test [2] was in the range of 1.1 to 2 µg/mL (≈ 1.84 to 3.34 µM); in test [3], 0.25 to 1 µg/mL (≈ 0.418 to 1.67 µM); in test [4], 2.1 to 4 µg/mL (≈ 3.51 to 6.68 µM).

For the compound `COc1ccc(F)cc1[C@H](Cn1c(=O)n([C@H]2CCCNC2=O)c(=O)c2c(C)c(-c3ncco3)sc21)OCCO` [Compound I-62, 1-((R)-2-(5-fluoro-2-methoxyphenyl)-2-(2-hydroxy-ethoxy)ethyl)-5-methyl-6-(oxazol-2-yl)-3-((S)-2-oxopiperidin-3-yl)thieno[2,3-d]pyrimidine-2,4(1H,3H)-dione], the 50% inhibitory concentration (IC50) in test [1] lay in the range of 10 to 100 nM. Also, the MIC in test [2], in test [3] and in test [4] was 2.1 to 4 µg/mL (≈ 3.76 to 7.16 µM) throughout.

Consider `COc1ccc(F)cc1[C@H](Cn1c(=O)n([C@H]2CCCN(C)C2=O)c(=O)c2c(C)c(-c3ncco3)sc21)OCCO` [Compound I-63, 1-((R)-2-(5-fluoro-2-methoxyphenyl)-2-(2-hydroxy-ethoxy)ethyl)-5-methyl-3-((S)-1-methyl-2-oxopiperidin-3-yl)-6-(oxazol-2-yl)thieno[2,3-d]pyrimidine-2,4(1H,3H)-dione], for which, in test [1], the IC50 was 10 to 100 nM. Moreover, the MIC in test [2], in test [3] and in test [4] was 2.1 to 4 µg/mL (≈ 3.67 to 6.99 µM) in each case.

In test [1], `COc1ccc(F)cc1[C@H](Cn1c(=O)n([C@@H]2CCCNC2=O)c(=O)c2c(C)c(-c3ncco3)sc21)OCCO` [Compound I-64, 1-((R)-2-(5-fluoro-2-methoxyphenyl)-2-(2-hydroxy-ethoxy)ethyl)-5-methyl-6-(oxazol-2-yl)-3-((R)-2-oxopiperidin-3-yl)thieno[2,3-d]pyrimidine-2,4(1H,3H)-dione] had an IC50 of 10 to 100 nM. For the same compound, the minimal inhibitory concentration (MIC) in test [2], in test [3] and in test [4] was 2.1 to 4 µg/mL (≈ 3.76 to 7.16 µM) each time.

`COc1ccc(F)cc1[C@H](Cn1c(=O)n([C@@H]2CCCN(C)C2=O)c(=O)c2c(C)c(-c3ncco3)sc21)OCCO` [Compound I-65, 1-((R)-2-(5-fluoro-2-methoxyphenyl)-2-(2-hydroxy-ethoxy)ethyl)-5-methyl-3-((R)-1-methyl-2-oxopiperidin-3-yl)-6-(oxazol-2-yl)thieno[2,3-d]pyrimidine-2,4(1H,3H)-dione] showed an IC50 in test [1] of 10 to 100 nM. The MIC in test [2], in test [3] and in test [4] was 2.1 to 4 µg/mL (≈ 3.67 to 6.99 µM) throughout.

In test [1], `COc1ccc(F)cc1[C@H](Cn1c(=O)n([C@]2(C)CCC(=O)NC2)c(=O)c2c(C)c(-n3nccn3)sc21)OCCO` [Compound I-133, 1-((R)-2-(5-fluoro-2-methoxyphenyl)-2-(2-hydroxy-ethoxy)ethyl)-5-methyl-3-((R)-3-methyl-6-oxopiperidin-3-yl)-6-(2H-1,2,3-triazol-2-yl)thieno[2,3-d]pyrimidine-2,4(1H,3H)-dione] yielded an IC50 of 10 to 100 nM. Moreover, the MIC in test [2], in test [3] and in test [4] was 2.1 to 4 µg/mL (≈ 3.67 to 6.99 µM) in each case.

In turn, `COc1ccc(F)cc1[C@H](Cn1c(=O)n([C@@]2(C)CCC(=O)NC2)c(=O)c2c(C)c(-n3nccn3)sc21)OCCO` [Compound I-135, 1-((R)-2-(5-fluoro-2-methoxyphenyl)-2-(2-hydroxy-ethoxy)ethyl)-5-methyl-3-((S)-3-methyl-6-oxopiperidin-3-yl)-6-(2H-1,2,3-triazol-2-yl)thieno[2,3-d]pyrimidine-2,4(1H,3H)-dione] gave an IC50 in test [1] of 10 to 100 nM. Besides, the minimum inhibitory concentration (MIC) in test [2], in test [3] and in test [4] was 2.1 to 4 µg/mL (≈ 3.67 to 6.99 µM) throughout.

As a reminder, the IC50 is the midpoint of a concentration-inhibition curve. Higher therefore signals weaker potency in that assay. As usually defined, the MIC is the lowest concentration that inhibits growth of the organism.
